Assay [1] has as its target Neuropeptides B/W receptor type 1 (Homo sapiens, UniProt P48145). Nature of the assay: human NPBW1 receptor blockade, IC50 – cell-based, fluorescence, dose response, set 5, late-stage follow-up (AID 588566). In kind it is functional.
The target of assay [2] is Melanin-concentrating hormone receptor 1 (Homo sapiens, UniProt Q99705). The assay is described as follows: Late-stage fluorescence-based counterscreen for antagonists of the G-protein coupled receptor 7 (GPR7): cell-based dose response assay to identify antagonists of the melanin-concentrating hormone receptor 1 (MCHR1) Set 5. In kind it is functional.

Calls of active or inactive are those of the source. No stated cut-off is given here; in the data, active = IC50 of 10 µM or less and inactive = more.

Melanin-concentrating hormone receptor 1, sequence (Q99705 whole entry): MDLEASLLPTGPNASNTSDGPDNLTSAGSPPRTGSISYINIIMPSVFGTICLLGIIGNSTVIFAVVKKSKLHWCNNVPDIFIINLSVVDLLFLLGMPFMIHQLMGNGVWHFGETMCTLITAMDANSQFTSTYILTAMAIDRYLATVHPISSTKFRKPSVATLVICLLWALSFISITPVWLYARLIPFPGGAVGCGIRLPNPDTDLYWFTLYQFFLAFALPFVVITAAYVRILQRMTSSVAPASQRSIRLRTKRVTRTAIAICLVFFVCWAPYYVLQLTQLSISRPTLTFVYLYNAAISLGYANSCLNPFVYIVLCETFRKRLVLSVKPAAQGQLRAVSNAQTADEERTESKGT
Neuropeptides B/W receptor type 1, sequence (P48145 whole entry): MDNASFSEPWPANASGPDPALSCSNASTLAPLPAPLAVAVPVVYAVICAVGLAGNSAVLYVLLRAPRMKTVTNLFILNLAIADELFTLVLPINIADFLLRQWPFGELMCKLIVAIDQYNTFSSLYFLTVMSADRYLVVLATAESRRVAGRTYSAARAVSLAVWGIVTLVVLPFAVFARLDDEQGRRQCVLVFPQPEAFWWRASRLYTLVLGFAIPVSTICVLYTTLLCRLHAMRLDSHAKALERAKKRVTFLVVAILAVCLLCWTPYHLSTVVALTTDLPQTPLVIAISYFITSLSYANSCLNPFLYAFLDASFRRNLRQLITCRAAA

As to `COc1ccc(Oc2c(F)cnn(-c3cccc(C)c3)c2=O)cc1`, the results for the IC50 in assay [1] and in assay [2] were 4.04 µM (active) and 7.64 µM (active), respectively.

(Values after ChEMBL document CHEMBL1201862, “PubChem BioAssay data set” (2004).)
